According to PubChem BioAssay AID2060899 (Molecular Pharmacology Branch, DTP, NCI, 2025):

Tested on: 565726-208-R1-J5-PDC complex spheroids, growth inhibition
Assay: Anticancer human tumor 565726-208-R1-J5-PDC patient-derived pancreatic adenocarcinoma cell line growth inhibition [RAS]
Conditions: for IC50: curve of first compound; for viability, T/C: stronger effect = lower value
Procedure, shortened: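 Agents were tested in combination matrices in half-log decrements from a top concentration at or near clinical Cmax (10 microM if undetermined). Targets were multi-cell spheroids of tumour lines plus HUVEC and MSC stromal cells.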

[1] = second compound 0.000949 µM, first compound 0.0316 µM
[2] = second compound 0.000949 µM, first compound 0.1 µM
[3] = second compound 0.000949 µM, first compound 0.316 µM
[4] = second compound 0.000949 µM, first compound 1 µM
[5] = second compound 0.000949 µM, first compound 3.16 µM
[6] = second compound 0.000949 µM, first compound 10 µM
[7] = second compound 0.003 µM, first compound 0.0316 µM
[8] = second compound 0.003 µM, first compound 0.1 µM
[9] = second compound 0.003 µM, first compound 0.316 µM
[10] = second compound 0.003 µM, first compound 1 µM
[11] = second compound 0.003 µM, first compound 3.16 µM
[12] = second compound 0.003 µM, first compound 10 µM
[13] = second compound 0.00949 µM, first compound 0.0316 µM
[14] = second compound 0.00949 µM, first compound 0.1 µM
[15] = second compound 0.00949 µM, first compound 0.316 µM
[16] = second compound 0.00949 µM, first compound 1 µM
[17] = second compound 0.00949 µM, first compound 3.16 µM
[18] = second compound 0.00949 µM, first compound 10 µM
[19] = second compound 0.03 µM, first compound 0.0316 µM
[20] = second compound 0.03 µM, first compound 0.1 µM
[21] = second compound 0.03 µM, first compound 0.316 µM
[22] = second compound 0.03 µM, first compound 1 µM
[23] = second compound 0.03 µM, first compound 3.16 µM
[24] = second compound 0.03 µM, first compound 10 µM
[25] = second compound 0.0949 µM, first compound 0.0316 µM
[26] = second compound 0.0949 µM, first compound 0.1 µM
[27] = second compound 0.0949 µM, first compound 0.316 µM
[28] = second compound 0.0949 µM, first compound 1 µM
[29] = second compound 0.0949 µM, first compound 3.16 µM
[30] = second compound 0.0949 µM, first compound 10 µM
[31] = second compound 0.3 µM, first compound 0.0316 µM
[32] = second compound 0.3 µM, first compound 0.1 µM
[33] = second compound 0.3 µM, first compound 0.316 µM
[34] = second compound 0.3 µM, first compound 1 µM
[35] = second compound 0.3 µM, first compound 3.16 µM
[36] = second compound 0.3 µM, first compound 10 µM
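Note: spheroids exposed to compounds for seven days before readout.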
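Throughout, for viability, T/C: 100% = DMSO vehicle control viability.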

CC(=O)OC12COC1CC(O)C1(C)C(=O)C(O)C3=C(C)C(OC(=O)C(O)C(NC(=O)OC(C)(C)C)c4ccccc4)CC(O)(C(OC(=O)c4ccccc4)C21)C3(C)C (configuration not stated) + CCn1c(-c2cc(N3CCN(C)CC3)cnc2C(C)OC)c2c3cc(ccc31)-c1csc(n1)CC(NC(=O)C1CC1C)C(=O)N1CCCC(N1)C(=O)OCC(C)(C)C2
IC50 (second compound 0.000949 µM): < 0.0316 µM
IC50 (second compound 0.003 µM): < 0.0316 µM
IC50 (second compound 0.00949 µM): < 0.0316 µM
IC50 (second compound 0.03 µM): < 0.0316 µM
IC50 (second compound 0.0949 µM): < 0.0316 µM
IC50 (second compound 0.3 µM): < 0.0316 µM
viability, T/C [1]: 20.3%
viability, T/C [2]: 17%
viability, T/C [3]: 19.2%
viability, T/C [4]: 17.7%
viability, T/C [5]: 20.2%
viability, T/C [6]: 20.8%
viability, T/C [7]: 20.4%
viability, T/C [8]: 17.7%
viability, T/C [9]: 17.2%
viability, T/C [10]: 15.5%
viability, T/C [11]: 18.7%
viability, T/C [12]: 18.4%
viability, T/C [13]: 17.9%
viability, T/C [14]: 17.1%
viability, T/C [15]: 14.7%
viability, T/C [16]: 16%
viability, T/C [17]: 17.6%
viability, T/C [18]: 15.2%
viability, T/C [19]: 14.5%
viability, T/C [20]: 13.7%
viability, T/C [21]: 11.5%
viability, T/C [22]: 14.5%
viability, T/C [23]: 13.7%
viability, T/C [24]: 13.6%
viability, T/C [25]: 11.7%
viability, T/C [26]: 13%
viability, T/C [27]: 14.6%
viability, T/C [28]: 12.5%
viability, T/C [29]: 14.1%
viability, T/C [30]: 11.3%
viability, T/C [31]: 10.4%
viability, T/C [32]: 10.5%
viability, T/C [33]: 11.4%
viability, T/C [34]: 11.3%
viability, T/C [35]: 12%
viability, T/C [36]: 10.4%

O=C(c1ccc(F)c(F)c1Nc1ccc(I)cc1F)N1CC(O)([C@@H]2CCCCN2)C1
viability, T/C (compound 0.0316 µM): 69.5% [middle of 4 runs]
viability, T/C (compound 0.1 µM): 62.4% [middle of 4 runs]
viability, T/C (compound 1 µM): 33.5% [middle of 4 runs]

C[C@@H](NC(=O)c1ncnc(N)c1Cl)c1ncc(C(=O)Nc2cc(C(F)(F)F)c(Cl)cn2)s1 + CCn1c(-c2cccnc2C(C)OC)c2c3cc(ccc31)N1CCOC(CC(NC(=O)C(C(C)C)N(C)C(=O)C3(F)CCN(C(=O)C#CC(C)(C)N(C)C)CC3)C(=O)N3CCCC(N3)C(=O)OCC(C)(C)C2)C1
IC50 (second compound 0.000949 µM): > 10 µM
IC50 (second compound 0.003 µM): > 10 µM
IC50 (second compound 0.00949 µM): > 10 µM
IC50 (second compound 0.03 µM): > 10 µM
IC50 (second compound 0.0949 µM): > 10 µM
IC50 (second compound 0.3 µM): > 10 µM
viability, T/C [1]: 111%
viability, T/C [2]: 109%
viability, T/C [3]: 113%
viability, T/C [4]: 103%
viability, T/C [5]: 98.1%
viability, T/C [6]: 83.3%
viability, T/C [7]: 118%
viability, T/C [8]: 111%
viability, T/C [9]: 107%
viability, T/C [10]: 109%
viability, T/C [11]: 98%
viability, T/C [12]: 79.8%
viability, T/C [13]: 108%
viability, T/C [14]: 107%
viability, T/C [15]: 104%
viability, T/C [16]: 114%
viability, T/C [17]: 105%
viability, T/C [18]: 82.2%
viability, T/C [19]: 102%
viability, T/C [20]: 110%
viability, T/C [21]: 112%
viability, T/C [22]: 112%
viability, T/C [23]: 105%
viability, T/C [24]: 80.9%
viability, T/C [25]: 108%
viability, T/C [26]: 101%
viability, T/C [27]: 99.7%
viability, T/C [28]: 108%
viability, T/C [29]: 90.1%
viability, T/C [30]: 90.6%
viability, T/C [31]: 91.3%
viability, T/C [32]: 98.7%
viability, T/C [33]: 95%
viability, T/C [34]: 107%
viability, T/C [35]: 90%
viability, T/C [36]: 77.5%
